“And” between values parts separate entries of the source, which are not always exact repeats. Equal entries are not always repeated.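 Growth conditions: 96-well plates. Treatment: test compound, 48 hours, 5 concentrations. Analysis: linear interpolation between bracketing concentrations; unreached endpoints set to highest concentration. The concentration for 50% growth inhibition is given as GI50. At the TGI there is no net growth.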 Where only a bound is given, the exact number is not on record here.

Test systems include MDA-N; SN12K1 renal; DLD-1 colon; P388/ADR leukemia; DMS 114 small cell lung; SNB-78 CNS; HOP-18 NSCLC; M19-MEL melanoma.
Holding throughout (test): NCI tumour cell line growth inhibition, 48 h

Turning to `CC(C)CCCCCCCCCCCCC(=O)NCC(=O)NC1C(O)C(O)C(Nc2ncnc3nc[nH]c23)OC1C(O)CO` (stereo not drawn), the GI50 in the assay with MDA-N is less than 0.01 nM; in the assay on SN12K1 renal, 6.46 nM; in the assay on DLD-1 colon, 10.4 nM; in the assay on P388/ADR leukemia, 5 nM; in the assay with DMS 114 small cell lung, 5 nM; in the assay on SNB-78 CNS it was 5 nM. The GI50 in the assay on M19-MEL melanoma is 5 nM. Moreover, the TGI with SN12K1 renal was 332 nM and 223 nM; with DLD-1 colon, 3830 nM; in the assay with DMS 114 small cell lung, 27.8 nM and 6.87 nM; in the assay with SNB-78 CNS it was 64.7 nM and 244 nM; in the assay with HOP-18 NSCLC, 1.08 nM; in the assay on M19-MEL melanoma, 40.9 nM and 15.6 nM.
